Measurements as given in ChEMBL document CHEMBL5126504, “A gulose moiety contributes to the belomycin (BLM) disaccharide selective targeting to lung cancer cells” (Eur J Med Chem, 2021).

Assays:
A549 = test: Cytotoxicity against human A549 cells assessed as reduction in cell viability after 48 hrs by MTT assay; type: functional, cell-based; conditions: A549, 48 h
[1] = Cytotoxicity against human BEAS-2B cells assessed as reduction in cell viability after 48 hrs by MTT assay; type: toxicity, cell-based
[2] = Selectivity index, ratio of IC50 for cytotoxicity against human BEAS-2B cells to IC50 for cytotoxicity against human A549 cells; type: toxicity, cell-based; conditions: BEAS-2B cells and A549 cells, read-out: Ratio IC50
[3] = Drug uptake in human A549 cells overexpressing GLUT1 assessed as increase in fluorescence intensity at 25 uM measured after 1 hr by DAPI staining based confocal fluorescence microscopic analysis; type: ADME, cell-based; conditions: a549, 1 h
[4] = Drug uptake in human A549 cells overexpressing GLUT1 assessed as increase in fluorescence intensity at 25 uM measured after 1 hr at 37 degreeC by DAPI staining based confocal fluorescence microscopic analysis; type: ADME, cell-based; conditions: a549, 1 h

Row | Structure (SMILES) | IC50 (A549) [nM] | IC50 at 48 h [1] [nM] | selectivity ratio [2] | Drug uptake [3] | Drug uptake [4]
1 | NC(=O)O[C@@H]1[C@H](O)[C@@H](O[C@H]2C(OCCCCCC(=O)Nc3ccn(C4OC(CO)C(O)C4(F)F)c(=O)n3)O[C@H](CO)[C@H](O)[C@H]2O)O[C@H](CO)[C@H]1O (stereo partly drawn) | 130 | 2600 | 20 |  | 
2 | CC(=O)OC[C@H]1OC(OCCCCCC(=O)Nc2ccn(C3OC(CO)C(O)C3(F)F)c(=O)n2)[C@@H](O)[C@@H](O)[C@@H]1O (stereo partly drawn) | 460 | 7780 |  |  | 
3 | CC[N+]1=C(/C=C/C=C/C=C2/N(CCCCCC(=O)NCCOCCOC3O[C@@H](CO)[C@@H](O)[C@H](O)[C@@H]3O[C@H]3O[C@H](CO)[C@@H](O)[C@H](OC(N)=O)[C@@H]3O)c3ccc(S(=O)(=O)O)cc3C2(C)C)C(C)(C)c2cc(S(=O)(=O)[O-])ccc21 (stereo partly drawn) |  |  |  | Active | 
4 | CC[N+]1=C(/C=C/C=C/C=C2/N(CCCCCC(=O)NCCOCCOC3O[C@@H](CO)[C@H](O)[C@@H](O)[C@@H]3O[C@H]3O[C@H](CO)[C@@H](O)[C@H](OC(N)=O)[C@@H]3O)c3ccc(S(=O)(=O)O)cc3C2(C)C)C(C)(C)c2cc(S(=O)(=O)[O-])ccc21 (stereo partly drawn) |  |  |  | Active | Active
5 | CC[N+]1=C(/C=C/C=C/C=C2/N(CCCCCC(=O)NCCOCCOC3O[C@H](CO)[C@H](O)[C@@H](O)[C@H]3O)c3ccc(S(=O)(=O)O)cc3C2(C)C)C(C)(C)c2cc(S(=O)(=O)[O-])ccc21 (stereo partly drawn) |  |  |  | Active | Active
6 | CC(=O)OC[C@H]1OC(OCCCCCC(=O)Nc2ccn(C3OC(CO)C(O)C3(F)F)c(=O)n2)[C@@H](O)[C@@H](OC(N)=O)[C@@H]1O (stereo partly drawn) | 920 | 7770 |  |  | 
7 | CC(=O)OC[C@H]1OC(OCCCCCC(=O)Nc2ccn(C3OC(CO)C(O)C3(F)F)c(=O)n2)[C@H](O)[C@H](O)[C@H]1O (stereo partly drawn) | 260 | 5430 | 20.9 |  | 
8 | Nc1ccn([C@@H]2O[C@H](CO)[C@@H](O)C2(F)F)c(=O)n1 [GEMCITABINE] | 44 | 37 | 0.88 |  | 
